Series [1] concerns the target C-C chemokine receptor type 2 (Homo sapiens) (UniProt P41597). The series is described as follows: Binding affinity to CCR2 receptor (unknown origin).
Series [2] in a line: Unbound fraction in human serum. The format is ADME, cell-free.
For series [3], the target named is T1, C-C chemokine receptor type 1 (Homo sapiens, UniProt P32246).
T1 sequence (P32246 whole entry): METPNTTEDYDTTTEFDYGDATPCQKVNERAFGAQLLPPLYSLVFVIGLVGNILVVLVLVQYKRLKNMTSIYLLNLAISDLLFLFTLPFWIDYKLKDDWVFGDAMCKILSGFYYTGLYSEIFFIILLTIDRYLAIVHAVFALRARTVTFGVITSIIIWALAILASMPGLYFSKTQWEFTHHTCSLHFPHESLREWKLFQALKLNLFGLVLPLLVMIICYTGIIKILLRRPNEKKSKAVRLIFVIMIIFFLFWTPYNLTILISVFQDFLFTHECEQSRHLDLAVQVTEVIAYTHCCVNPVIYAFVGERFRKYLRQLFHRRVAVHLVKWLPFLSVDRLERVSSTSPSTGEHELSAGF
In words: Displacement of [125I]MIP-1alpha from CCR1 in human THP1 cells. The format is cell-based, THP-1. In general terms: In a radioligand displacement assay an active substance lowers the binding of a labelled ligand.

Series [4] can be described thus: Displacement of [125I]hMIP-1alpha from rat CCR1.
Series [5] can be described thus: Displacement of [125I]hMIP-1alpha from monkey PBMC CCR1. The arrangement: species or system Macaca mulatta.
Series [6] concerns the target Voltage-gated inwardly rectifying potassium channel KCNH2 (Homo sapiens, UniProt Q12809). In words: Inhibition of human ERG.
Series [7] is described as follows: Metabolic stability in human liver microsomes assessed as compound remaining at 0.5 uM after 60 mins by UV-LC/MS analysis. The class given is ADME. The following applies: read-out: Stability. In general terms: Liver microsomes are a subcellular fraction often used to study metabolism.
Series [8] has as its target T1, C-C chemokine receptor type 1. In words: Displacement of [125I]hMIP-1alpha from CCR1 in human PBMC.
Series [9] is described as follows: Metabolic stability in rat liver microsomes assessed as compound remaining at 0.5 uM after 60 mins by UV-LC/MS analysis. The class given is ADME. The following applies: read-out: Stability.
Series [10] concerns the target T2, C-X-C chemokine receptor type 3 (Homo sapiens) (UniProt P49682).
T2 sequence (whole entry): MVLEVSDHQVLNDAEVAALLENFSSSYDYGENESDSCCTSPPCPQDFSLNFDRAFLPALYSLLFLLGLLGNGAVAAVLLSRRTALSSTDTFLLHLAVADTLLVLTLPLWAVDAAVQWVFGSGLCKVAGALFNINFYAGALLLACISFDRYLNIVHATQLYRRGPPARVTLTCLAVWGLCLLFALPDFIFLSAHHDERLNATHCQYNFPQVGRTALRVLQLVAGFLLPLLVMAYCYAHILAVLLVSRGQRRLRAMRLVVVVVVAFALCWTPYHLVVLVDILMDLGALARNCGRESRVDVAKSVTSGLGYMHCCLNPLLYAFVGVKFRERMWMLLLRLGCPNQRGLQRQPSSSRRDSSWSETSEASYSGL
The series is described as follows: Binding affinity to CXCR3 receptor (unknown origin).

Series [11] has as its target T1, C-C chemokine receptor type 1. In words: Antagonist activity at CCR1 receptor in human whole blood assessed as blocked of MIP-1alpha-mediated CD11b upregulation preincubated for 1 hr.
Series [12] has the same target. The series is described as follows: Antagonist activity at CCR1 receptor in human whole blood assessed as blocked of LKN1-mediated CD11b upregulation preincubated for 1 hr.
For series [13], the target named is T3, Chemokine (C-C motif) receptor 1 (Canis lupus familiaris, UniProt Q2V0Q7).
T3 sequence (Q2V0Q7 whole entry): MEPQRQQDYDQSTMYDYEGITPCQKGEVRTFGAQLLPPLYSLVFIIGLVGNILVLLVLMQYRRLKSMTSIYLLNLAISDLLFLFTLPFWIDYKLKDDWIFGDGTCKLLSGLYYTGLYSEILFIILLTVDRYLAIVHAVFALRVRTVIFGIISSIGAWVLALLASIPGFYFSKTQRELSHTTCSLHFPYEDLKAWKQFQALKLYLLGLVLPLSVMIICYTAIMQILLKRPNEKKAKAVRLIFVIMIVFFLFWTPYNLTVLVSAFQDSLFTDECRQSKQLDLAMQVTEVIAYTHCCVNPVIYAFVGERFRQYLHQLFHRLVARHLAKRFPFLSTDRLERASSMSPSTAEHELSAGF
The series is described as follows: Displacement of [125I]hMIP-1alpha from dog PBMC CCR1.

A short description of series [14]: Bioavailability in rat at 5 mg/kg. The format is ADME, organism-based. To be noted: in vivo.

Calls of active or inactive are those of the source. No cut-off for these calls is given here.

Chain of Voltage-gated inwardly rectifying potassium channel KCNH2 (Q12809 whole entry): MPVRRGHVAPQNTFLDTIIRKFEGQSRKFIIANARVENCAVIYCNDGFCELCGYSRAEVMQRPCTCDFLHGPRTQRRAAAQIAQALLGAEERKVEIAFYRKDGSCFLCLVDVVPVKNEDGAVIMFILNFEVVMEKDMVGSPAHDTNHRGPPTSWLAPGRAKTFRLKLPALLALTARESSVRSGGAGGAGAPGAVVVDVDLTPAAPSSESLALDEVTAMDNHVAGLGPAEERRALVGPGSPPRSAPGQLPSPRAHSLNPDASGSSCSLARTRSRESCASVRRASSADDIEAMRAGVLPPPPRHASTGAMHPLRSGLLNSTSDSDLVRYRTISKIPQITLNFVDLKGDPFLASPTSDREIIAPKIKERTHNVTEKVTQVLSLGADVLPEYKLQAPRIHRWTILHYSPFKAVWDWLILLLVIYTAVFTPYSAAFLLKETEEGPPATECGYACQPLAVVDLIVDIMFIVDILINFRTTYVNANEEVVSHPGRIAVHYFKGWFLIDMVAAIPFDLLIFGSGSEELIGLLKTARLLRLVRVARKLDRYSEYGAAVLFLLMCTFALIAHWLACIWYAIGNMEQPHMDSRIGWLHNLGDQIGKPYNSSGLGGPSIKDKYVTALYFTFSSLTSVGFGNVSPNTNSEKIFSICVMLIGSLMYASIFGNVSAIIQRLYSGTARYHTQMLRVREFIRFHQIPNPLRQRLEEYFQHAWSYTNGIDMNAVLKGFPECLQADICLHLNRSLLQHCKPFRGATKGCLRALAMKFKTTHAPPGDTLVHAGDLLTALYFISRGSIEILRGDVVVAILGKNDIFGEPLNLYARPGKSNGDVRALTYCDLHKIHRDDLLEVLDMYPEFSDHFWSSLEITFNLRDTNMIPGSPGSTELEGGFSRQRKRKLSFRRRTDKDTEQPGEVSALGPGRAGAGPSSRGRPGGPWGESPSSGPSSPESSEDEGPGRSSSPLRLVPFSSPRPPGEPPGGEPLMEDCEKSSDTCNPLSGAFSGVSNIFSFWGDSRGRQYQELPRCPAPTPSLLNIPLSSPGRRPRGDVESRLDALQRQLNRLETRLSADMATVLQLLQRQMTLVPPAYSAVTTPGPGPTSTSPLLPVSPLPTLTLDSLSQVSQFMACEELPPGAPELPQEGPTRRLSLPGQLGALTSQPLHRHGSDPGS
Chain of C-C chemokine receptor type 2 (Homo sapiens) (P41597 whole entry, looked up): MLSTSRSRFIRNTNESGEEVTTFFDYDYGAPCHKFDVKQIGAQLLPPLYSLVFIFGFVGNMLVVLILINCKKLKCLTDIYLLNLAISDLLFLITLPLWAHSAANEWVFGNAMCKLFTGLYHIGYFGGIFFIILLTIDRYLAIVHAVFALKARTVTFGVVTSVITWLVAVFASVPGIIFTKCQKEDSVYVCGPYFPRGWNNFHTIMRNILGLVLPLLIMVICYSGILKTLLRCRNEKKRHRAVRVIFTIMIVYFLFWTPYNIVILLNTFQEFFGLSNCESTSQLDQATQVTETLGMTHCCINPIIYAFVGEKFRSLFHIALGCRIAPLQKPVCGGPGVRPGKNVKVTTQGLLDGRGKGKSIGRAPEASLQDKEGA

Broadly, the fraction unbound is free concentration divided by total concentration. What is called IC50 is the concentration at which inhibition is half-maximal. Broadly, the bioavailability is dose-corrected exposure relative to a reference, in per cent. Take `CC(C)[C@@H](NC(=O)NCC(C)(C)O)C(=O)N1CC[C@](O)(c2ccc(Cl)cc2)C(C)(C)C1` [BMS-817399]: the result in series [1] and in series [10] was inactive. The same molecule had an unbound share (fraction unbound) in series [2] of 0.19. The half-maximal inhibitory concentration (IC50) in series [3] is 1 nM; in series [4], greater than 50000 nM; in series [5] it was greater than 50000 nM; in [8], 4.2 nM; in series [11] it was 25 nM; in series [12] it was 42 nM. Further, the IC50 in series [13] was determined as 635 nM. Moreover, the “inhibition (INH)” value in series [6] is given as “Not Active”. Besides, the remaining at 1 h, 0.5 µM in [7] came to 100%; in series [9] it was 74%. The molecule also displayed a bioavailability in series [14] of 46%.
